From ChEMBL document CHEMBL1201862, “PubChem BioAssay data set” (2004)
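96-well plates; 48 h exposure; 5 concentrations. Endpoints by linear interpolation between flanking doses. Not reached: highest tested concentration assigned. GI50 = concentration required for 50% inhibition of growth.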 Calls of active or inactive are those of the source. Rule as the data show it: active = GI50 up to about 1.1 µM and inactive = higher.

What was measured:
Test in all cases: growth of human tumour cells (NCI), 48 h
[1] = system: 786-0
[2] = system: A549
[3] = system: ACHN
[4] = system: BT-549
[5] = system: CAKI-1
[6] = system: CCRF-CEM
[7] = system: COLO 205
[8] = system: DU-145
[9] = system: EKVX
[10] = system: HCC 2998
[11] = system: HCT-116
[12] = system: HCT-15
[13] = system: HL-60
[14] = system: HOP-92
[15] = system: HT-29
[16] = system: Hs-578T
[17] = system: IGROV-1
[18] = system: K562
[19] = system: KM12
[20] = system: M14
[21] = system: MCF7
[22] = system: MDA-MB-231
[23] = system: MDA-MB-435
[24] = system: MOLT-4
[25] = system: Malme-3M
[26] = system: NCI-H226
[27] = system: NCI-H23
[28] = system: NCI-H460
[29] = system: NCI-H522
[30] = system: NCI/ADR-RES
[31] = system: OVCAR-3
[32] = system: OVCAR-4
[33] = system: OVCAR-5
[34] = system: OVCAR-8
[35] = system: PC-3
[36] = system: RPMI-8226
[37] = system: RXF 393
[38] = system: SF-268
[39] = system: SF-295
[40] = system: SF-539
[41] = system: SK-MEL-28
[42] = system: SK-MEL-2
[43] = system: SK-MEL-5
[44] = system: SK-OV-3
[45] = system: SN12C
[46] = system: SNB-19
[47] = system: SNB-75
[48] = system: SR
[49] = system: SW-620
[50] = system: T47D
[51] = system: TK-10
[52] = system: U-251
[53] = system: UACC-257
[54] = system: UACC-62
[55] = system: UO-31
[56] = system: HOP-62
[57] = system: LOX IMVI

With `Nc1nc2ccc(Sc3ccc4nc(N)[nH]c(=O)c4c3)cc2c(=O)[nH]1` the GI50 [1] was > 100 µM (inactive), the GI50 [2] was > 100 µM (inactive) and the GI50 [3] was > 100 µM (inactive). For the same molecule, the GI50 [4] was > 100 µM (inactive), the GI50 [5] was > 100 µM (inactive) and the GI50 [6] was > 100 µM (inactive). The GI50 [7] was > 100 µM (inactive), the GI50 [8] was > 100 µM (inactive) and the GI50 [9] was > 100 µM (inactive). For the same molecule, the GI50 [10] was > 100 µM (inactive), the GI50 [11] was > 100 µM (inactive) and the GI50 [12] was > 100 µM. For the same molecule, the GI50 [13] was > 100 µM (inactive), the GI50 [14] was > 100 µM (inactive) and the GI50 [15] was > 100 µM (inactive). For the same molecule, the GI50 [16] was > 100 µM (inactive), the GI50 [17] was 61.1 µM (inactive) and the GI50 [18] was > 100 µM (inactive). For the same molecule, the GI50 [19] was > 100 µM (inactive), the GI50 [20] was > 100 µM (inactive) and the GI50 [21] was > 100 µM (inactive). For the same molecule, the GI50 [22] was 67.3 µM (inactive), the GI50 [23] was > 100 µM (inactive) and the GI50 [24] was > 100 µM (inactive). For the same molecule, the GI50 [25] was > 100 µM (inactive), the GI50 [26] was 14.1 µM (inactive) and the GI50 [27] was > 100 µM (inactive). For the same molecule, the GI50 [28] was > 100 µM (inactive), the GI50 [29] was > 100 µM (inactive) and the GI50 [30] was > 100 µM (inactive). For the same molecule, the GI50 [31] was > 100 µM (inactive), the GI50 [32] was > 100 µM (inactive) and the GI50 [33] was > 100 µM (inactive). The GI50 [34] was > 100 µM (inactive), the GI50 [35] was > 100 µM (inactive) and the GI50 [36] was > 100 µM (inactive). The GI50 [37] was > 100 µM (inactive), the GI50 [38] was > 100 µM (inactive) and the GI50 [39] was 59.2 µM (inactive). The GI50 [40] was > 100 µM (inactive), the GI50 [41] was > 100 µM (inactive) and the GI50 [42] was > 100 µM (inactive). The GI50 [43] was > 100 µM (inactive), the GI50 [44] was > 100 µM (inactive) and the GI50 [45] was > 100 µM (inactive). The GI50 [46] was > 100 µM (inactive), the GI50 [47] was > 100 µM (inactive) and the GI50 [48] was > 100 µM (inactive). For the same molecule, the GI50 [49] was > 100 µM (inactive), the GI50 [50] was > 100 µM (inactive) and the GI50 [51] was > 100 µM (inactive). For the same molecule, the GI50 [52] was 42.5 µM (inactive), the GI50 [53] was > 100 µM (inactive) and the GI50 [54] was > 100 µM (inactive). The GI50 [55] was > 100 µM (inactive).
For `CN(CCNC(=S)c1cn(C)c2c1ccc1ccccc12)CCNC(=S)c1cn(C)c2c1ccc1ccccc12`, the GI50 [1] was 53.6 µM (inactive), the GI50 [2] was 64.3 µM (inactive) and the GI50 [3] was > 100 µM (inactive). The GI50 [4] was > 100 µM (inactive), the GI50 [5] was > 100 µM (inactive) and the GI50 [6] was 17.9 µM (inactive). For the same molecule, the GI50 [7] was > 100 µM (inactive), the GI50 [8] was 48.2 µM (inactive) and the GI50 [9] was 67.9 µM (inactive). For the same molecule, the GI50 [10] was 16.6 µM (inactive), the GI50 [11] was 24.4 µM (inactive) and the GI50 [12] was > 100 µM. For the same molecule, the GI50 [56] was > 100 µM (inactive), the GI50 [14] was 5.64 µM (inactive) and the GI50 [15] was 27.5 µM (inactive). For the same molecule, the GI50 [16] was 69.2 µM (inactive), the GI50 [17] was 29.4 µM (inactive) and the GI50 [18] was 54.8 µM (inactive). The GI50 [19] was 37.1 µM (inactive), the GI50 [57] was 18.5 µM (inactive) and the GI50 [21] was 33.5 µM (inactive). The GI50 [22] was 38.7 µM (inactive), the GI50 [23] was 96.8 µM (inactive) and the GI50 [24] was 24.7 µM (inactive). The GI50 [25] was > 100 µM (inactive), the GI50 [27] was 48 µM (inactive) and the GI50 [28] was 71.8 µM (inactive). For the same molecule, the GI50 [29] was 51.2 µM (inactive), the GI50 [30] was > 100 µM (inactive) and the GI50 [31] was > 100 µM (inactive). The GI50 [32] was 11.3 µM (inactive), the GI50 [33] was > 100 µM (inactive) and the GI50 [34] was > 100 µM (inactive). The GI50 [35] was 28.6 µM (inactive), the GI50 [37] was 2.05 µM (inactive) and the GI50 [38] was 74 µM (inactive). For the same molecule, the GI50 [39] was 99.3 µM (inactive), the GI50 [40] was 47.6 µM (inactive) and the GI50 [41] was 64.4 µM (inactive). The GI50 [42] was > 100 µM (inactive), the GI50 [43] was > 100 µM (inactive) and the GI50 [44] was > 100 µM (inactive). The GI50 [45] was 40.9 µM (inactive), the GI50 [46] was > 100 µM (inactive) and the GI50 [47] was 10.7 µM (inactive). The GI50 [48] was 49.5 µM (inactive), the GI50 [49] was > 100 µM (inactive) and the GI50 [50] was 3.74 µM (inactive). For the same molecule, the GI50 [51] was > 100 µM (inactive), the GI50 [52] was 23.7 µM (inactive) and the GI50 [53] was 46.2 µM (inactive). For the same molecule, the GI50 [54] was > 100 µM (inactive) and the GI50 [55] was 32.1 µM (inactive).
